Reference: patent US9428456B2, “1-[m-carboxamido(hetero)aryl-methyl]-heterocyclyl-carboxamide derivatives” (Actelion Pharmaceuticals Ltd., priority 2012, dated 2016)

Target: CXCR7 (Homo sapiens (Human), UniProt P25106)
Experiment: PathHunter CHO-K1 CXCR7 b-arrestin assay (agonistic activity)
Format: cell-based
Conditions: PathHunter CHO-K1 CXCR7 b-arrestin cell line
Method: The CXCl12 receptor and CXCR7 agonistic activities of the compounds of formula (I) are determined in accordance with the following experimental method.
The assay is using the PathHunter™ CHO-K1 CXCR7 b-arrestin cell line from DiscoverX. The system is based on the Enzyme Fragment Complementation Technology. Two complementing fragments of the b-galactosidase enzyme are expressed within stably transfected cells. The larger portion of b-gal, termed EA for Enzyme Acceptor, is fused to the C-terminus of b-arrestin 2. The smaller fragment, termed ProLink™ tag, is fused to CXCR7 at the C-terminus. Upon activation, b-arrestin is recruited which forces the interaction of ProLink and EA, allowing complementation of the two fragments of b-gal and the formation of a functional enzyme which is capable of hydrolysing the substrate and generating a chemiluminescent signal.
CHO-K1 CXCR7 b-arrestin cells are detached from culture dishes with a cell dissociation buffer (Invitrogen, #13151-014) and collected in growing medium (F12 HAMS 90% (v/v)/FCS 10% (v/v), Penicilin/streptomycin 1% (v/v)). 5000 cells per well (in 20 μl) are seeded in a 384 well plate (white-walled, clear bottom; BD Falcon #353274). The plate is incubated at 37° C./5% CO2 for 24 hours. Medium is then replaced by 20 μl OPTIMEM (Invitrogen #31985) for 3 to 4 hours. Test compounds are dissolved at 10 mM in DMSO and serially diluted in DMSO to 200× of the final concentration for dose response curves. Compounds are then diluted 1:33.3 in HBSS1×. 5 μl/well of HBSS1×/20 mM HEPES/0.2% BSA are added to the assay plate followed by addition of 5 μl/well of diluted compounds. CXCL12 (Peprotech #300-28A) may be used as a reference agonist. The plate is incubated for 90 minutes at 37° C. 12 μl of detection reagent (Path Hunter Detection Kit, DiscoveRx, #93-0001) is transferred to the assay plate and to the plate is incubated for 1 hour at room temperature. Luminescent signal is read in a microplate reader (FLUOstar Optima, bmg). The calculated EC50 values may fluctuate depending on the daily cellular assay performance. Fluctuations of this kind are known to those skilled in the art. Average EC50 values from several measurements are given as geometric mean values.

Sequence of CXCR7 (P25106 whole entry): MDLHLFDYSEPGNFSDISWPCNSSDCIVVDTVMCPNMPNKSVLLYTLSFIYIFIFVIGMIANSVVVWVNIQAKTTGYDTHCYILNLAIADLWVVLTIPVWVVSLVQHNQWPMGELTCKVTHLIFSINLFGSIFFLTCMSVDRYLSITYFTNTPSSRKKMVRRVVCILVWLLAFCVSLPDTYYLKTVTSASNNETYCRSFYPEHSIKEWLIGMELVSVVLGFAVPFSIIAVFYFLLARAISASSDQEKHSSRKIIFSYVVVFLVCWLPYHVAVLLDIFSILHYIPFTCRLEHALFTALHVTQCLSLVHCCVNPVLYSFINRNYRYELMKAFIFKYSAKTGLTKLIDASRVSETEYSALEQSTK
Sequence of CXCR7 (P32121 whole entry partner): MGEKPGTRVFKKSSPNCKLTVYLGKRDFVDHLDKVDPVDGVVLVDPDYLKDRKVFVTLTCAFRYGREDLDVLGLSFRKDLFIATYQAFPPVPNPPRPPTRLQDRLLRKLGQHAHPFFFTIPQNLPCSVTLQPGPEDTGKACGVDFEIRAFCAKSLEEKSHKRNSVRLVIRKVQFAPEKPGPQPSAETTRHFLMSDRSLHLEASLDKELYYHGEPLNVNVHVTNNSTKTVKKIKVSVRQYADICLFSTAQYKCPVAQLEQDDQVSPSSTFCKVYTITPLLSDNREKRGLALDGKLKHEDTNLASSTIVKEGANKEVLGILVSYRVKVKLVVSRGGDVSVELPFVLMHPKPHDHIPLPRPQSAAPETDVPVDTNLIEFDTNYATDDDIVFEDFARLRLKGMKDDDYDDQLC

Row | Compound | EC50 [nM]
1 | COc1ccc(C(=O)Nc2cc(CN3CCC(C(=O)NC4CCCCC4)CC3)ccc2Cl)cc1 [Example 1.159] | 14
2 | CC(C)CNC(=O)C1CCN(Cc2cccc(NC(=O)c3cccc(C(F)(F)F)n3)c2)C1 (racemic) [Example 2.098, rac-6-Trifluoromethyl-pyridine-2-carboxylic acid [3-(3-isobutylcarbamoyl-pyrrolidin-1-ylmethyl)-phenyl]-amide] | 193
3 | Cc1ccc(F)c(C(=O)Nc2cccc(CN3CCC(C(=O)NC4CCCCC4)CC3)c2)c1 [Example 1.116] | 6
4 | CC(c1cccc(NC(=O)c2ccc(F)cc2)c1)N1CCC(C(=O)NC2CCCCC2)CC1 (centres unmarked) [Example 1.166] | 10
5 | COc1ccccc1CC(=O)Nc1cccc(CN2CCC(C(=O)NC3CCCCC3)CC2)c1 [Example 1.035] | 4
6 | Cc1ccnc(C(=O)Nc2cccc(C(C)N3CCC(C(=O)NC4CCCCC4)CC3)c2)c1 (racemic) [Example 1.191] | 64
7 | CC(C)(C)NC(=O)C1CCN(Cc2cccc(NC(=O)Cc3cc(F)c(Cl)cc3Cl)c2)CC1 [Example 1.252] | 4
8 | Cc1cccc(C(=O)Nc2cccc(CN3CCC(C(=O)NC4CCCCC4)CC3)c2)n1 [Example 1.081] | 0.9
9 | O=C(Nc1cccc(CN2CCC(C(=O)NC3CCCC3)CC2)c1)c1cccnc1C(F)(F)F [Example 1.214] | 109
10 | Cc1cccc(C(=O)Nc2cccc(CN3CCC(C(=O)NC4CCCCC4)CC3)c2)c1 [Example 1.100] | 3
11 | 6-Trifluoromethyl-pyridine-2-carboxylic acid [3-(4-pentylcarbamoyl-piperidin-1-ylmethyl)-phenyl]-amide [Example 2.080] | 15
12 | COc1cc(C(=O)Nc2cccc(CN3CCC(C(=O)NC4CCCCC4)CC3)c2)cc(Cl)n1 [Example 1.075] | 9
13 | CC(c1cccc(NC(=O)c2cccnc2)c1)N1CCC(C(=O)NC2CCCCC2)CC1 (racemic) [Example 1.171] | 150
14 | CC(C)(C)CC(=O)Nc1cccc(CN2CCC(C(=O)NC3CCCCC3)CC2)c1 [Example 1.020] | 25
15 | O=C(Nc1cc(CN2CCC(C(=O)NC3CCCCC3)CC2)ccc1Cl)c1ccncn1 [Example 1.157] | 2
16 | O=C(Nc1cccc(CN2CCC(C(=O)NC3CCCCC3)CC2)c1)c1cc(Cl)ccn1 [Example 1.077] | 3
17 | Cc1cccc(C(=O)Nc2cccc(CN3CCC(C(=O)NC4CC4)CC3)c2)n1 [Example 1.201] | 3
18 | COc1ccc(NC(=O)c2ccc(F)cc2)cc1CN1CCC(C(=O)NC(C)(C)C)CC1 [Example 1.298] | 19
19 | CC(C)(C)NC(=O)C1CCN(Cc2cccc(NC(=O)c3ccc(C(F)(F)F)cn3)c2)CC1 [Example 1.229] | 0.5
20 | CC(c1cccc(NC(=O)c2cccc(C#N)c2)c1)N1CCC(C(=O)NC2CCCCC2)CC1 (racemic) [Example 1.179] | 78
21 | CCC(C)(C)NC(=O)C1CCN(Cc2cccc(NC(=O)c3ccc(Cl)cn3)c2)CC1 [Example 1.338] | 0.8
22 | O=C(Nc1cccc(CN2CCC(C(=O)NC3CCCCC3)CC2)c1)c1cncc(C(F)(F)F)c1 [Example 1.058] | 5
23 | O=C(Nc1cccc(CN2CCC(C(=O)NC3CCCCC3)CC2)c1)c1ccccc1F [Example 1.102] | 4
24 | CC(C)(C)NC(=O)C1CCN(Cc2cccc(NC(=O)c3cnc4ccccc4n3)c2)CC1 [Example 1.232] | 3
25 | CC(C)(C)NC(=O)C1CCN(Cc2cccc(NC(=O)C3(c4ccccc4)CC3)c2)CC1 [Example 1.309] | 1
26 | O=C(Cc1cccc(Cl)c1)Nc1cccc(CN2CCC(C(=O)NC3CCCCC3)CC2)c1 [Example 1.024] | 10
27 | O=C(Nc1cccc(CN2CCC(C(=O)NC3CCCCC3)CC2)c1)c1cccc2ccccc12 [Example 1.048] | 46
28 | CC(C)(C)NC(=O)C1CCN(Cc2cccc(NC(=O)C3CNc4ccccc43)c2)CC1 (racemic) [Example 1.265] | 15
29 | O=C(Nc1ccc(Cl)c(CN2CCC(C(=O)NC3CCCC3)CC2)c1)c1cnc2ccccc2c1 [Example 1.222] | 3
